“And” between values parts separate entries of the source, which are not always exact repeats. Equal entries are not always repeated.

The test system of the experiment is Fibroblasts of a normal human. The experiment can be described thus: Test for determining activity of fibroblast to enhance type I collagen production (ELISA of culture medium). Type of experiment: cell-based. As to conditions: positive control, 25 μM, 24 h, n=6. The procedure:
Fibroblasts of a normal human were cultured for 24 hours in 0.5% FBS-DMEM culture medium containing the test sample, and the amount of collagen in the culture medium was quantified by ELISA. The test was carried out by repeating six times for each condition (n=6). As a positive control (P.C.), magnesium ascorbyl phosphate (VCPMg) was used. The test samples employed were the calcined hydroxyapatite that is produced in the Production Example 1 and the non-calcined hydroxyapatite that is used in the Production Example 2.
For orientation: ELISA stands for enzyme-linked immunosorbent assay.

In the case of `O=C1O[C@H]([C@@H](O)CO)C([O-])=C1OP(=O)([O-])[O-].O=C1O[C@H]([C@@H](O)CO)C([O-])=C1OP(=O)([O-])[O-].[Mg+2].[Mg+2].[Mg+2]` [VC-PMg, magnesium ascorbyl phosphate], the “Collagen Mean ± SD” value is 24.28 ± 1.06 μg/mg protein and 19.75 ± 1.11 μg/mg protein.
